Results as given in patent US9023817B2, “Use of albiflorin for anti-depression” (priority 2009, dated 2015).

Tests used:
[1] = system: rats with chronic stress induced depression model; test: Consumption of 1% aqueous sucrose, chronic stress induced depression; format: in vivo, SD rats; settings: 1% aqueous sucrose for 1 hour
Description: The gavage was carried out along with the model establishment, once a day, for 21 days. […] Referring to the methods in the literature (Xu Jing, Li Xiaoqiu, Establishment and evaluation of the model of chronic stress induced depression, Chinese Journal of Behavioral Medical Science, 2003, 12(1): 14 16), the model was established (i.e., establishing animal model of anti-depression by means of CUMS): the foot electric shock (voltage: […] (5 minutes), drying at 45° C. […] All parameters to be tested were expressed as Mean±SD (X±s), and tested by means of analysis of variance (ANOVA) in SPSS 12.0 software (purchased from SPSS Inc., USA), p<0.05 means that there was a significant difference.

ICR mice = test: Tail suspension test in mice, intraperitoneal injection; format: in vivo; settings: 7 mg/kg intraperitoneal injection, 1 day; 30 min after administration
Description: Normal mice were randomly divided into three groups (n=20 for each group) according to their weights, i.e. model group, high-dose group (14 mg/kg) and medium-dose group (7 mg/kg) of Albiflorin. Intraperitoneal injection group was subjected to the administration for 1 day. Each group was administered at a dose of 0.2 ml/10 g weight.
The test of intraperitoneal injection group was performed at 30 min after the administration. The tail of mouse 2 cm away from the tip of the tail) was fixed to the connection line of 100 g tension transducer with adhesive plaster, and the mouse was hung upside down, with the head about 15 cm away from the experimental bench, two animals isolated from each other by a cardboard were simultaneously tested for each time. The transducer was connected into the Medlab bio-signals acquisition and processing system, after 2 mins of adaption, the result over 4 mins was recorded, and the immobility situation was converted into the time(s).
The experimental data was expressed as X±SD, and the analysis of variance for the experimental results was carried out by SPSS 11.5 statistical software (purchased from SPSS Inc., USA).

[2] = system: rats with chronic stress induced depression model; test: Open-field test, chronic stress induced depression; format: in vivo, SD rats; settings: 3.5 mg/kg/day gavage for 21 days; 3 minutes
Description: The gavage was carried out along with the model establishment, once a day, for 21 days. […] Referring to the methods in the literature (Xu Jing, Li Xiaoqiu, Establishment and evaluation of the model of chronic stress induced depression, Chinese Journal of Behavioral Medical Science, 2003, 12(1): 14 16), the model was established (i.e., establishing animal model of anti-depression by means of CUMS): the foot electric shock (voltage: […] (5 minutes), drying at 45° C. (5 minutes), tail nipping (1 min), wet feeding (wet mat), reversed day and night (24 hours), fasting (24 hours), water deprivation (24 hours) were randomly scheduled within 21 days, one kind of stimulations was given for each day, except for the animals of vehicle group, the others were separately caged with free diet, at the room temperature of (24±1)° C., with the relative humidity of (60±10)%. The open-field device was of 40 cm in height, 80 cm in both length and width, without cap, the inner walls and the bottom of the device are black, and the bottom was divided into 25 squares with equal area. The numbers of squares that the animals pass through were designated as the score of horizontal movement, and the numbers of standing (with the forelegs above 1 cm away from the ground) were designated as the score of vertical movement. Each animal was measured for one time, 3 minutes for each measurement. All parameters to be tested were expressed as Mean±SD (X±s), and tested by means of analysis of variance (ANOVA) in SPSS 12.0 software (purchased from SPSS Inc., USA), p<0.05 means that there was a significant difference.

## C[C@]12C[C@@H](O)[C@@H]3C[C@@]1(O[C@@H]1O[C@H](CO)[C@@H](O)[C@H](O)[C@H]1O)[C@@]3(COC(=O)c1ccccc1)C(=O)O2 [Albiflorin]
[1]; 3.5 mg/kg/day gavage, Day 0
  comsumption of aqeous sucrose: 12.75 ± 5.24 mL
[1]; 3.5 mg/kg/day gavage, Day 7
  comsumption of aqeous sucrose: 12.67 ± 5.42 mL
[1]; 3.5 mg/kg/day gavage, Day 14
  comsumption of aqeous sucrose: 11.83 ± 5.15 mL
[1]; 3.5 mg/kg/day gavage, Day 21
  comsumption of aqeous sucrose: 11.92 ± 3.96 mL
[1]; 7 mg/kg/day gavage, Day 0
  comsumption of aqeous sucrose: 12.67 ± 5.37 mL
[1]; 7 mg/kg/day gavage, Day 7
  comsumption of aqeous sucrose: 13.42 ± 5.37 mL
[1]; 14 mg/kg/day gavage, Day 0
  comsumption of aqeous sucrose: 12.50 ± 5.32 mL
[1]; 14 mg/kg/day gavage, Day 7
  comsumption of aqeous sucrose: 14.08 ± 3.65 mL
[1]; 14 mg/kg/day gavage, Day 14
  comsumption of aqeous sucrose: 13.00 ± 3.74 mL
ICR mice
  Immobility Time: 82.350 ± 52.5132 s
[2]
  Score of horizontal movement: 21.42 ± 20.38
  Score of vertical movement: 4.67 ± 6.87
